The results in this text go back to ChEMBL document CHEMBL4613209, “Quinolone hybrids and their anti-cancer activities: An overview” (Eur J Med Chem, 2019).

As a reminder, the IC50 is the concentration at which inhibition is half-maximal.

For one assay, the system named is MDA-MB-231. Put plainly: Cytotoxicity against human MDA-MB-231 cells assessed as reduction in cell viability after 48 hrs by MTT assay. The following applies: MDA-MB-231, 48 h. It counts as functional, cell-based. On the technique in general: Tetrazolium assays rely on reduction of a dye to a coloured formazan, in cell work by metabolically active cells.
The test system of another assay is T47D. The experiment in a line: Cytotoxicity against human T47D cells assessed as reduction in cell viability after 48 hrs by MTT assay. It counts as functional, cell-based.
The test system of assay [1] is MCF7. The experiment in a line: Cytotoxicity against human MCF7 cells assessed as reduction in cell viability after 48 hrs by MTT assay. It counts as functional, cell-based. As to conditions: MCF7, 48 h.
The next assay has as its system A2780. The experiment in a line: Cytotoxicity against human A2780 cells assessed as reduction in cell viability after 72 hrs by MTT assay. In kind it is functional, cell-based. The following applies: A2780, 72 h.
Assay [2] relates to A549. Put plainly: Cytotoxicity against human A549 cells assessed as reduction in cell viability after 72 hrs by MTT assay. It counts as functional, cell-based. The following applies: A549, 72 h.
The subject of assay [3] is MCF7. The experiment in a line: Cytotoxicity against human MCF7 cells assessed as reduction in cell viability after 72 hrs by MTT assay. As to conditions: MCF7, 72 h. It counts as functional, cell-based.
The next assay has as its system ACHN. The experiment in a line: Cytotoxicity against human ACHN cells assessed as reduction in cell viability after 72 hrs by MTT assay. In kind it is functional, cell-based.
The next assay has as its system SK-MEL3. The experiment in a line: Cytotoxicity against human SK-MEL-3 cells assessed as reduction in cell viability after 72 hrs by MTT assay. As to conditions: SK-MEL3, 72 h. It counts as functional, cell-based.
A further assay relates to KB. Put plainly: Cytotoxicity against human KB cells assessed as reduction in cell viability after 72 hrs by MTT assay. It counts as functional, cell-based.
The test system of a further assay is A 172. Put plainly: Cytotoxicity against human A172 cells assessed as reduction in cell viability after 72 hrs by MTT assay. It counts as functional, cell-based. The following applies: A 172, 72 h.
Assay [4] concerns A549. The experiment in a line: Cytotoxicity against human A549 cells assessed as reduction in cell viability. It counts as functional, cell-based.
The test system of assay [5] is MCF7. The experiment in a line: Cytotoxicity against human MCF7 cells assessed as reduction in cell viability. In kind it is functional, cell-based.
Assay [6] concerns the target RAC-beta serine/threonine-protein kinase (Homo sapiens, UniProt P31751). The experiment in a line: Inhibition of PKBbeta (unknown origin).
The target of assay [7] is T1, Inhibitor of nuclear factor kappa-B kinase subunit alpha (Homo sapiens, UniProt O15111).
T1 sequence (O15111 whole entry): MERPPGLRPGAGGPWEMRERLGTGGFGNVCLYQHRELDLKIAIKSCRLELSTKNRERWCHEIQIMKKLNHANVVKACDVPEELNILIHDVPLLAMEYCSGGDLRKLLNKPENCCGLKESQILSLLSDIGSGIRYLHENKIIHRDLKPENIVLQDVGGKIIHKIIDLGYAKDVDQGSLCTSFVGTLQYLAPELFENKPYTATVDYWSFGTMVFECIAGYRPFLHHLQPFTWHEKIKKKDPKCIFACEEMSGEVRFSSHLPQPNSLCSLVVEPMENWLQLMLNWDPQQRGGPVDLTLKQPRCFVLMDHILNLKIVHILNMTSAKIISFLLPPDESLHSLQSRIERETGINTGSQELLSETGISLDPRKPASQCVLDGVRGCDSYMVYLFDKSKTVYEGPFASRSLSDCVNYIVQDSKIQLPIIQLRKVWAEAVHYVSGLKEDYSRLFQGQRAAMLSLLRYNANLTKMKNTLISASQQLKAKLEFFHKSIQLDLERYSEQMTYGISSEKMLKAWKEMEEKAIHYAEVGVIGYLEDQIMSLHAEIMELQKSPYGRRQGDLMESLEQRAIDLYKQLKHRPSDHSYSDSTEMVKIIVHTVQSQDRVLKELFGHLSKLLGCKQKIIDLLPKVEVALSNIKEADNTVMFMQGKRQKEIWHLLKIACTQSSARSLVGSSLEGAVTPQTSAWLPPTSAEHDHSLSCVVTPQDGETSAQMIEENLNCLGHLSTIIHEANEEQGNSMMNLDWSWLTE
The experiment in a line: Inhibition of IKKalpha (unknown origin).

Assay [8] concerns the target RAC-gamma serine/threonine-protein kinase (Homo sapiens, UniProt Q9Y243). Put plainly: Inhibition of PKBgamma (unknown origin).
Assay [9] deals with T2, Inhibitor of nuclear factor kappa-B kinase subunit beta (Homo sapiens, UniProt O14920).
T2 sequence (O14920 whole entry): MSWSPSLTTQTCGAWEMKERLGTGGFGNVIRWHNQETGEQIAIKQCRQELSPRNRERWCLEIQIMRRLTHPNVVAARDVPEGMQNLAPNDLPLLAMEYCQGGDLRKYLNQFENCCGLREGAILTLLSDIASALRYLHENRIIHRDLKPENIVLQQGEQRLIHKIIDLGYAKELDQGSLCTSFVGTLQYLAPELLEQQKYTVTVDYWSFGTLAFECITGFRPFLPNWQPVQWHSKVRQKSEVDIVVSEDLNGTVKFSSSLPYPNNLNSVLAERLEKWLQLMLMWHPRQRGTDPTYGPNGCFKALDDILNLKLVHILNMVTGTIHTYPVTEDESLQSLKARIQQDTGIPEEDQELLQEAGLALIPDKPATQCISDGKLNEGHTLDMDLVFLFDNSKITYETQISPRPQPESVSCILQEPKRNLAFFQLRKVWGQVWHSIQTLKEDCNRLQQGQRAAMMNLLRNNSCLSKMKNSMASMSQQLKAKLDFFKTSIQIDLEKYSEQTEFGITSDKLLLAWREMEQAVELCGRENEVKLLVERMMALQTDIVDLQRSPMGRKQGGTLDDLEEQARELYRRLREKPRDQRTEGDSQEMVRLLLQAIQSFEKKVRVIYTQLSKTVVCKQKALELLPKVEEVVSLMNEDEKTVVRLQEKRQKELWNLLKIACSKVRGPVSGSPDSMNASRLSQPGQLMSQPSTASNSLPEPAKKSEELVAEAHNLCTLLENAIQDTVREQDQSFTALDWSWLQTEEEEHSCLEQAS
Put plainly: Inhibition of IKKbeta (unknown origin).

For assay [10], the target named is RAC-alpha serine/threonine-protein kinase (Homo sapiens, UniProt P31749). Put plainly: Inhibition of PKBalpha (unknown origin).
Chain of RAC-alpha serine/threonine-protein kinase (P31749 whole entry): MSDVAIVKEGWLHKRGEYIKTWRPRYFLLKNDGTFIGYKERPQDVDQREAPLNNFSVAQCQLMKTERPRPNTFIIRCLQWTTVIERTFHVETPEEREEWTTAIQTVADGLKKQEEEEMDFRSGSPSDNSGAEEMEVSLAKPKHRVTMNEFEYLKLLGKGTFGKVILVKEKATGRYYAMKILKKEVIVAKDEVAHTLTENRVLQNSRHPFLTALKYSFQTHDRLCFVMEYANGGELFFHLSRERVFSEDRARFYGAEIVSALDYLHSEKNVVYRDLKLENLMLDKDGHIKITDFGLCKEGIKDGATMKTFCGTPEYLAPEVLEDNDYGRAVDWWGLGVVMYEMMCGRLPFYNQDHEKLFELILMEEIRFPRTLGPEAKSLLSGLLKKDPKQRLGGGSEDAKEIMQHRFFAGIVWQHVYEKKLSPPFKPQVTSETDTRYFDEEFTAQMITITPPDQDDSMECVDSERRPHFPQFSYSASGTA

Chain of RAC-gamma serine/threonine-protein kinase (Q9Y243 whole entry): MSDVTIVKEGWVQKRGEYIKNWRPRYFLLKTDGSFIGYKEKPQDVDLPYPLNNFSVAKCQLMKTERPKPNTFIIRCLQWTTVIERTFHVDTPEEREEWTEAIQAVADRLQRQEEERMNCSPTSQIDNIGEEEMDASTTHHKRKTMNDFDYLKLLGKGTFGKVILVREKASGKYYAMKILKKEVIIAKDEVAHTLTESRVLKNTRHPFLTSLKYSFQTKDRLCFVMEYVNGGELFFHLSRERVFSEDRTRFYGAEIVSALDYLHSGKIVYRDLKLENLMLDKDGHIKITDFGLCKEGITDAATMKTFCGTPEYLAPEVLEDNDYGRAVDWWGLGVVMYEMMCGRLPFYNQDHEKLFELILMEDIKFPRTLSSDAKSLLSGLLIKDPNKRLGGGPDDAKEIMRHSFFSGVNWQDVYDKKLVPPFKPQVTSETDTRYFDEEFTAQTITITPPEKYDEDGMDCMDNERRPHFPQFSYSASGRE
Chain of RAC-beta serine/threonine-protein kinase (P31751 whole entry): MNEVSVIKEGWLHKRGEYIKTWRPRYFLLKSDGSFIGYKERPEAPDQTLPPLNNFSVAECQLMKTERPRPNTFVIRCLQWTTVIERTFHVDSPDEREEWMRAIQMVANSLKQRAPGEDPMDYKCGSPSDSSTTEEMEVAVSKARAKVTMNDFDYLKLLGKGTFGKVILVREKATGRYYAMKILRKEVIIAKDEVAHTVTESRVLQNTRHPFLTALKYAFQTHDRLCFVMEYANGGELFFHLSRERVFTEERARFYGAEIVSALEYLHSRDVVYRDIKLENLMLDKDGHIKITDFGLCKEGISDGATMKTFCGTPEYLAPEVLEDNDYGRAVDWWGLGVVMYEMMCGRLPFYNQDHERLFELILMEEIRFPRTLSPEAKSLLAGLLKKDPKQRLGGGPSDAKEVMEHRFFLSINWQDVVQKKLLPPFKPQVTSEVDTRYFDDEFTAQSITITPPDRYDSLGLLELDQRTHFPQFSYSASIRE

As to `COc1cc(Cn2cc(Cn3c4ccccc4c(=O)c4cc(Br)ccc43)nn2)cc(OC)c1OC`, the IC50 in the assay on MDA-MB-231, in the assay with T47D and with MCF7 [1] was over 100 µM in each case.

For the molecule `CCc1ccc2c(c1)c(=O)c1ccccc1n2Cc1cn(Cc2cc(OC)c(OC)c(OC)c2)nn1`, the half-inhibitory concentration (IC50) in the assay with MDA-MB-231, in the assay with T47D and in the assay with MCF7 [1] was over 100 µM each time.

As to `O=C(O)c1cn(C2CC2)c2cc(N3CCN(C/C(=N/OCc4ccc(Cl)cc4)c4cccs4)CC3)c(F)cc2c1=O`, the half-maximal inhibitory concentration (IC50) in the assay on A2780, in the assay with A549 [2], in the assay with MCF7 [3], in the assay on ACHN, with SK-MEL3 and with KB was at most 10 µM throughout. The IC50 with A 172 was at most 10 µM.

In the case of `O=C(/C=C(O)/C=C/c1cc2ccccc2[nH]c1=O)/C=C/c1cc2ccccc2[nH]c1=O`, the IC50 in the assay with A549 [4] was 31.5 µM; in the assay with MCF7 [5], 69.1 µM.

Consider `COc1cc(Cn2cc(Cn3c4ccccc4c(=O)c4cc(Cl)ccc43)nn2)cc(OC)c1OC`, for which the IC50 in the assay with MDA-MB-231, with T47D and with MCF7 [1] was over 100 µM throughout.

Turning to `CCn1cc(C(=O)O)c(=O)c2cc(F)c(N3CCN(C/C(=N/OC)c4ccco4)CC3)cc21`, the half-maximal inhibitory concentration (IC50) with A2780, with A549 [2], with MCF7 [3], in the assay on ACHN, in the assay with SK-MEL3 and in the assay on KB was over 100 µM each time. Also, the IC50 in the assay with A 172 is over 100 µM.

As for `COc1ccc(Cn2cc(Cn3c4ccccc4c(=O)c4cc(OC)ccc43)nn2)cc1`, the IC50 in the assay on MDA-MB-231, with T47D and with MCF7 [1] was 11 to 16.6 µM each time.

As to `O=C(O)c1cn(C2CC2)c2cc(N3CCN(C/C(=N/O)c4ccco4)CC3)c(F)cc2c1=O`, the concentration for half-maximal inhibition (IC50) in the assay with A2780, in the assay on A549 [2], with MCF7 [3], in the assay with ACHN, with SK-MEL3 and in the assay on KB was over 100 µM throughout. Also, in the assay with A 172, the IC50 is over 100 µM.

On to `COc1cc(Cn2cc(Cn3c4ccccc4c(=O)c4ccccc43)nn2)cc(OC)c1OC`, for which the IC50 in the assay on MDA-MB-231, in the assay with T47D and in the assay on MCF7 [1] was over 100 µM in each case.

Turning to `Cc1ccc2[nH]c(=O)c(C(=O)/C=C/c3nc4ccccc4[nH]3)c(-c3ccccc3)c2c1`, the IC50 in assay [6], in assay [7], in [8], in [9] and in [10] was 1.64 to 44.5 µM in each case.

In the case of `CO/N=C(/CN1CCN(c2cc3c(cc2F)c(=O)c(C(=O)O)cn3C2CC2)CC1)c1ccco1`, the IC50 with A2780, in the assay with A549 [2], in the assay on MCF7 [3], with ACHN, with SK-MEL3 and with KB was over 100 µM each time. Further, the IC50 with A 172 is over 100 µM.

For `CCn1cc(C(=O)O)c(=O)c2cc(F)c(N3CCN(C/C(=N/O)c4ccco4)CC3)cc21`, the IC50 in the assay with A2780, in the assay on A549 [2], in the assay on MCF7 [3], with ACHN, with SK-MEL3 and with KB was over 100 µM in each case. The IC50 with A 172 was over 100 µM.

Turning to `O=C(O)c1cn(C2CC2)c2cc(N3CCN(C/C(=N/OCc4ccc(Cl)cc4)c4ccco4)CC3)c(F)cc2c1=O`, the IC50 in the assay on A2780, in the assay on A549 [2], in the assay with MCF7 [3], in the assay on ACHN, with SK-MEL3 and with KB was at most 10 µM throughout. Further, the IC50 with A 172 is at most 10 µM.

Turning to `O=C(/C=C/c1nc2cc(F)ccc2[nH]1)c1c(-c2ccc(F)cc2)c2cc(F)ccc2[nH]c1=O`, the IC50 in assay [6], in assay [7], in assay [8], in assay [9] and in [10] was 1.64 to 44.5 µM each time.

As for `CCn1cc(C(=O)O)c(=O)c2cc(F)c(N3CCN(C/C(=N/OCc4ccccc4)c4ccco4)CC3)cc21`, the IC50 in the assay with A2780, with A549 [2], with MCF7 [3], in the assay on ACHN, in the assay with SK-MEL3 and in the assay with KB was at most 10 µM throughout. Also, the IC50 with A 172 is at most 10 µM.

As to `COc1cc(Cn2cc(Cn3c4ccccc4c(=O)c4cccc(F)c43)nn2)cc(OC)c1OC`, the 50% inhibitory concentration (IC50) with MDA-MB-231, in the assay on T47D and with MCF7 [1] was over 100 µM each time.

Take `COc1cc(Cn2cc(Cn3c4ccccc4c(=O)c4cccc(OC)c43)nn2)cc(OC)c1OC`: the IC50 in the assay on MDA-MB-231, with T47D and with MCF7 [1] was over 100 µM each time.

In the case of `O=C(/C=C/c1nc2ccccc2[nH]1)c1c(O)nc2ccc(Cl)cc2c1-c1ccccc1`, the IC50 in [6], in assay [7], in assay [8], in assay [9] and in [10] was 1.64 to 44.5 µM in each case.

Take `Cn1c(=O)c(C(=O)/C=C/c2nc3cc(F)ccc3[nH]2)c(-c2ccccc2)c2cc(Cl)ccc21`: the IC50 in [6], in assay [7], in [8], in assay [9] and in assay [10] was 1.64 to 44.5 µM in each case.

On to `Cc1ccc2[nH]c(/C=C/C(=O)c3c(-c4ccccc4)c4cc(Cl)ccc4[nH]c3=O)nc2c1`, for which the IC50 in [6], in [7], in [8], in [9] and in assay [10] was 1.64 to 44.5 µM throughout.

For the molecule `COc1ccc2c(c1)c(=O)c1ccccc1n2Cc1cn(Cc2cc(OC)c(OC)c(OC)c2)nn1`, the IC50 in the assay with MDA-MB-231, in the assay on T47D and with MCF7 [1] was over 100 µM in each case.

With `O=C(/C=C/c1nc2ccccc2[nH]1)c1c(-c2ccccc2)c2ccccc2[nH]c1=O`, the IC50 in [6], in [7], in [8], in [9] and in assay [10] was 1.64 to 44.5 µM each time.

Regarding `CCn1cc(C(=O)O)c(=O)c2cc(F)c(N3CCN(C/C(=N/OCc4ccc(Cl)cc4)c4ccco4)CC3)cc21`, the IC50 in the assay on A2780, in the assay on A549 [2], with MCF7 [3], with ACHN, in the assay on SK-MEL3 and with KB was at most 10 µM in each case. The IC50 in the assay with A 172 was at most 10 µM.

Consider `N=c1c(-c2nn3c(-c4cn(C5CC5)c5cc(N6CCNCC6)c(F)cc5c4=O)nnc3s2)cn(C2CC2)c2cc(N3CCNCC3)c(F)cc12`, for which the IC50 with A2780, in the assay with A549 [2], with MCF7 [3], with ACHN, in the assay with SK-MEL3 and in the assay with KB was at most 10 µM each time. Besides, the 50% inhibitory concentration (IC50) with A 172 is at most 10 µM.
